Experimental data taken from article PMC2011106, “Structure/activity relationships for the enhancement by electron-affinic drugs of the anti-tumour effect of CCNU” (British Journal of Cancer, 1982).
“Also recorded” adds a separate entry of the source. Counter-ions that a name gives are not always drawn. Like-named read-outs stand apart in the source and are kept apart here.

How the values were obtained:
[1] = for toxicity: dose not stated, tested at MTD; for toxicity at 2.5 mmol/kg: 2.5 mmol/kg i.p.
[2] = system: KHT sarcoma; assay: regrowth-delay assay: enhancement of the anti-tumour effect of CCNU; type: in vivo, C3H mice; settings: for enhancement of CCNU response relative to MISO: 2.5 mmol/kg 30 min before 10 mg/kg CCNU; for sensitizer dose/response curve, activity: Fig. 4, various sensitizer doses; for growth delay, test compound given alone: without CCNU
[3] = system: ascites L1210 leukaemia; parameters: method as in Klubes et al., 1979; settings: mice; ref Klubes et al., 1979; cited from earlier work
[4] = system: RIF-1 sarcoma; parameters: method as in Siemann (1982); settings: 5 mmol/kg; ref Siemann (1982); cited from earlier work
[5] = system: KHT tumour; parameters: method as in Rauth et al. (1978); settings: same tumour and mouse strain, similar timing; ref Rauth et al. (1978); cited from earlier work
[6] = at close to maximum tolerated dose (MTD, below 2.5 mmol/kg) 30 min before 10 mg/kg CCNU

SMILES: CC1=C(C)C(=O)C(C)=C(C)C1=O [duroquinone]
- toxicity [1]: quite toxic
- enhancement of CCNU response [2, 6]: little or no activity

SMILES: O=[N+]([O-])c1nccn1CC(O)CN1CCCCC1 (stereo not shown) [compound 13]
- enhancement of CCNU response relative to MISO [2]: Neither was more effective than MISO
- enhancement of CCNU response relative to MISO ([2]; listed as Ro 03-8799): slightly less than MISO

SMILES: O=[N+]([O-])c1cncn1CCN1CCOCC1 [nimorazole]
- enhancement of CCNU response relative to MISO [2]: activities similar or even superior to MISO

SMILES: O=C1c2ccccc2C(=O)c2cc(S(=O)(=O)O)ccc21 [anthraquinone sulphonate, anthraquinone-2-sulphonate]
- decrease in body temperature (2.5 mmol/kg): 5-6 °C
- toxicity at 2.5 mmol/kg [1]: non-toxic
- enhancement of CCNU response relative to MISO [2]: reasonable activity

SMILES: Cc1ncc([N+](=O)[O-])n1CCO [METRO, metronidazole]
- decrease in body temperature (10 mmol/kg): 10 °C
- enhancement of CCNU response relative to MISO [2]: activities similar or even superior to MISO
- tumour response ([2]; 10 mmol/kg + 10 mg/kg CCNU, Fig. 4): about the same as with 2-5 mmol/kg MISO
- sensitizer dose/response curve, activity ([2]; 10 mg/kg CCNU): rather less active than MISO

SMILES: CCCC(C(=O)OCCN(CC)CC)(c1ccccc1)c1ccccc1 [SKF 525A, proadifen hydrochloride]
- effect on LD50 of methyl-CCNU [3]: reducing the LD50
- response of ascites L1210 leukaemia to methyl-CCNU [3]: increased the response
- enhancement of CCNU response ([2]; 0.13 mmol/kg, 10 mg/kg CCNU, 10 mg/kg): increased the anti-tumour effect of CCNU; also recorded: active

SMILES: Cn1cnc([N+](=O)[O-])c1S(=O)(=O)Oc1ccccc1 [NSC 38087]
- toxicity at 2.5 mmol/kg [1]: toxic
- toxicity [1]: highly toxic
- enhancement of CCNU response [2, 6]: little activity at MTD

SMILES: NC(=O)c1cc(N2CC2)c([N+](=O)[O-])cc1[N+](=O)[O-] [CB 1954, 2,4-dinitro-5-aziridinylbenzamide]
- toxicity at 2.5 mmol/kg [1]: toxic
- toxicity [1]: rather toxic
- enhancement of CCNU response ([2]; mouse, in vivo): no enhancement of CCNU response at MTD
- growth delay, test compound given alone [2]: about 1 day

SMILES: Cn1cnc([N+](=O)[O-])c1Sc1ncnc2nc[nH]c12 [azathioprine]
- toxicity at 2.5 mmol/kg [1]: toxic
- enhancement of CCNU response ([2]; 1.4 mmol/kg, compared with 2.5 mmol/kg MISO, 10 mg/kg CCNU): superior to 2-5 mmol/kg MISO
- enhancement of CCNU response [2, 6]: more active than MISO
- growth delay, test compound given alone [2]: about 1 day

SMILES: CC1=CC(=O)c2ccccc2C1=O [menadione]
- toxicity [1]: quite toxic
- enhancement of CCNU response [2, 6]: little or no activity

SMILES: c1c[nH]cn1 [imidazole]
- enhancement of CCNU response ([2]; 5 mmol/kg (not shown), 10 mg/kg CCNU): ineffective

SMILES: O=C(Cn1ccnc1[N+](=O)[O-])NCCO [SR-2508]
- enhancement of RIF-1 tumour response to CCNU [4]: Some enhancement

SMILES: O=NN(CCCl)C(=O)NC1CCCCC1 [CCNU, 1-(2-chloroethyl)-3-cyclohexyl-1-nitrosurea]
- median growth delay ([2]; CCNU 20 mg/kg alone, 11 independent experiments): 10 days

SMILES: O=C(Cn1ccnc1[N+](=O)[O-])NCc1ccccc1 [BENZO, benznidazole]
- enhancement of CCNU response relative to MISO [2]: most active
- dose-modifying factor (DMF) ([2]; 2.5 mmol/kg + 10 mg/kg CCNU compared with 20 mg/kg CCNU alone): > 2
- sensitizer dose/response curve, activity ([2]; 10 mg/kg CCNU): good activity at doses down to 0-05-0-1 mmol/kg
- activity relative to MISO at low doses ([2]; low doses 0.1-0.9 mmol/kg, 10 mg/kg CCNU): considerably more active than MISO

SMILES: O=[N+]([O-])c1nccn1CC(O)CO (stereo not shown) [DEMIS, desmethylmisonida- zole]
- in vivo radiosensitization [5]: good radiosensitization
- enhancement of CCNU response relative to MISO [2]: considerably less active than MISO

SMILES: NC(=O)N/N=C/c1ccc([N+](=O)[O-])o1 [nitrofurazone]
- toxicity at 2.5 mmol/kg [1]: toxic
- enhancement of CCNU response [2, 6]: reasonable activity; also recorded: reasonably active, but less than 2-5 mmol/kg MISO

SMILES: O=C1CN(/N=C/c2ccc([N+](=O)[O-])o2)C(=O)N1 [nitrofurantoin]
- toxicity at 2.5 mmol/kg [1]: toxic
- enhancement of CCNU response [2, 6]: virtually inactive

SMILES: COCC(O)Cn1ccnc1[N+](=O)[O-] (stereo not shown) [MISO, misonidazole]
- decrease in body temperature (mouse, in vivo): 1-2
- Activity Index (AI) for enhancement of CCNU effect ([2]; mouse, in vivo, 10 mg/kg): 1
